Assay results reported in US8604044B2, “Quinazoline based EGFR inhibitors containing a zinc binding moiety” (Curis, Inc., priority 2006, dated 2013).

Key:
HDAC = HDAC fluorimetric assay (HDAC enzymatic activity, HeLa nuclear extract); assay type: biochemical; conditions: HeLa nuclear extract; read-out: HDAC IC50 grading
Method: HDAC inhibitors were screened using an HDAC fluorimetric assay kit (AK-500, Biomol, Plymouth Meeting, Pa.).
Each assay was setup as follows: Defrosted all kit components and kept on ice until use. […] Prepared dilutions of Trichostatin A (TSA, positive control) and tested compounds in assay buffer (5× of final concentration). Diluted Fluor de Lys™ Substrate in assay buffer to 100 uM (50 fold=2× final). Diluted Fluor de Lys™ developer concentrate 20-fold (e.g. 50 μl plus 950 μl Assay Buffer) in cold assay buffer. Second, diluted the 0.2 mM Trichostatin A 100-fold in the 1× Developer (e.g. 10 μl in 1 ml; final Trichostatin A concentration in the 1× Developer=2 μM; final concentration after addition to HDAC/Substrate reaction=1 μM). Added Assay buffer, diluted trichostatin A or test inhibitor to appropriate wells of the microtiter plate. Added diluted HeLa extract or other HDAC sample to all wells except for negative controls.

HER2 = biological target: T1, HER2 (Homo sapiens, UniProt P04626); assay: Radioisotope assay for HER2; assay type: biochemical; conditions: read-out: HER2/ErB2 IC50 grading
T1 construct: human HER2 amino acids 679-1255; host or cells: baculovirus in Sf9 insect cells
Method: Protocol for Radioisotope Assay for HER2
10 nM HER2 and 0.1 mg/ml polyEY were placed in the reaction buffer and 2 mM MnCl2, 1 μM ATP and 1% DMSO final were added. The reaction mixture was incubated for 2 hours at room temperature.
MW=91.6 kDa. […] Enzyme is in 25 mM Tris-HCl, pH 8.0, 100 mM NaCl, 0.05% Tween-20, 50% glycerol, 10 mM reduced glutathione, and 3 mM DTT.

T1 sequence (P04626 679-1255): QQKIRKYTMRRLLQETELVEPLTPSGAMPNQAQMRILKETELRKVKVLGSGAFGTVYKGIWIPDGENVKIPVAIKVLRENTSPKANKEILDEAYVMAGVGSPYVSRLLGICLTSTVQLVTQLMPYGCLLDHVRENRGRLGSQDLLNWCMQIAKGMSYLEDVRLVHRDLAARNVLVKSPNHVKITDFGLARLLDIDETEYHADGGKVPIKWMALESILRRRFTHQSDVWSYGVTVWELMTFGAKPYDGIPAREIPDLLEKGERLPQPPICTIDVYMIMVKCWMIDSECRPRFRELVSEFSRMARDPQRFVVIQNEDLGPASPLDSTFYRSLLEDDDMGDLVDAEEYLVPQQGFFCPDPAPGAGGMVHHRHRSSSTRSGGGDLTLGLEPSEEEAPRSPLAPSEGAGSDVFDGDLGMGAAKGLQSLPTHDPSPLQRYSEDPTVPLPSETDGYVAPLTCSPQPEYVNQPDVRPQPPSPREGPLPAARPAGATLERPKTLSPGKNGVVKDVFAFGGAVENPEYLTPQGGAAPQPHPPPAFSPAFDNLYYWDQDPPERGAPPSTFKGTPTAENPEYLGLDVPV

`C#Cc1cccc(Nc2ncnc3cc(OC)c(OCC(=O)NO)cc23)c1` [Compound 7, 2-(4-(3-ethynylphenylamino)-7-methoxyquinazolin-6-yloxy)-N-hydroxyacetamide] was tested, and the IC50 (HDAC) was over 10 µM and the IC50 (HER2) was under 0.1 µM.

For `C#Cc1cccc(Nc2ncnc3cc(OC)c(OCCCCCC(=O)NO)cc23)c1` [Compound 11, 6-(4-(3-ethynylphenylamino)-7-methoxyquinazolin-6-yloxy)-N-hydroxyhexanamide], the IC50 (HDAC) was under 0.1 µM and the IC50 (HER2) was 0.1 to 1 µM.

`O=C(CCCCCCOc1ccc2ncnc(Nc3ccc(F)c(Cl)c3)c2c1)NO` [Compound 18, 7-(4-(3-chloro-4-fluorophenylamino)quinazolin-6-yloxy)-N-hydroxyheptanamide] showed an IC50 (HDAC) of under 0.1 µM and an IC50 (HER2) of 0.1 to 1 µM.

In the case of `COCCOc1cc2ncnc(Nc3ccc(F)c(Cl)c3)c2cc1OCCCCCCC(=O)NO` [Compound 30, 7-(4-(3-Chloro-4-fluorophenylamino)-7-(2-methoxyethoxy)quinazolin-6-yloxy)-N-hydroxyheptanamide], the IC50 (HDAC) is reported as under 0.1 µM and the IC50 (HER2) is reported as 0.1 to 1 µM.

`COc1cc2ncnc(Nc3ccc(F)c(Cl)c3)c2cc1NC(=O)CCCCCCC(=O)NO` [Compound 40, N^1-(4-(3-chloro-4-fluorophenylamino)-7-methoxyquinazolin-6-yl)-N^8-hydroxyoctanediamide] showed an IC50 (HDAC) of under 0.1 µM and an IC50 (HER2) of 0.1 to 1 µM.

`C#Cc1cccc(Nc2ncnc3cc(OC)c(NC(=O)CCCCCCC(=O)NO)cc23)c1` [Compound 44, N^1-(4-(3-ethynylphenylamino)-7-methoxyquinazolin-6-yl)-N^8-hydroxyoctanediamide] gave an IC50 (HDAC) of under 0.1 µM and an IC50 (HER2) of 0.1 to 1 µM.

For `COCCOc1cc2ncnc(Nc3ccc(F)c(Cl)c3)c2cc1NC(=O)CCCC(=O)NO` [Compound 68, N^1-(4-(3-chloro-4-fluorophenylamino)-7-(2-methoxyethoxy)quinazolin-6-yl)-N^5-hydroxyglutaramide], the IC50 (HDAC) was 1 to 10 µM.

Molecule `COCCOc1cc2ncnc(Nc3ccc(F)c(Cl)c3)c2cc1NC(=O)CCCCC(=O)NO` [Compound 69, N^1-(4-(3-chloro-4-fluorophenylamino)-7-(2-methoxyethoxy)quinazolin-6-yl)-N^6-hydroxyadipamide] has an IC50 (HDAC) of 0.1 to 1 µM.

In the case of `COCCOc1cc2ncnc(Nc3ccc(F)c(Cl)c3)c2cc1NC(=O)CCCCCCC(=O)NO` [Compound 70, N^1-(4-(3-chloro-4-fluorophenylamino)-7-(2-methoxyethoxy)quinazolin-6-yl)-N^8-hydroxyoctanediamide], the IC50 (HER2) is reported as under 0.1 µM.

For `C#Cc1cc(Nc2ncnc3cc(OC)c(OCCCCCCC(=O)NO)cc23)ccc1F` [Compound 75, 7-(4-(3-ethynyl-4-fluorophenylamino)-7-methoxyquinazolin-6-yloxy)-N-hydroxyheptanamide], the IC50 (HDAC) was under 0.1 µM and the IC50 (HER2) was 0.1 to 1 µM.

Work on `C#Cc1cc(Nc2ncnc3cc(OCCOC)c(OCCCCCCC(=O)NO)cc23)ccc1F` [Compound 76] yielded an IC50 (HDAC) of under 0.1 µM and an IC50 (HER2) of 0.1 to 1 µM.

`COc1cc2ncnc(N[C@H](C)c3ccccc3)c2cc1OCCCCCC(=O)NO` [Compound 77, (R)—N-hydroxy-6-(7-methoxy-4-(1-phenylethylamino)quinazolin-6-yloxy)-hexanamide] showed an IC50 (HDAC) of under 0.1 µM.

With `C[C@@H](Nc1ncnc2ccc(OCCCCCC(=O)NO)cc12)c1ccccc1` [Compound 78, (R)—N-hydroxy-6-(4-(1-phenylethylamino)-quinazolin-6-yloxy)hexanamide] the IC50 (HDAC) was under 0.1 µM.

`COc1cc2ncnc(N[C@@H](C)c3ccccc3)c2cc1OCCCCCCC(=O)NO` [Compound 80, (S)—N-hydroxy-7-(7-methoxy-4-(1-phenylethylamino)quinazolin-6-yloxy)heptanamide] showed an IC50 (HDAC) of under 0.1 µM.

In the case of `COc1cc2ncnc(N[C@H](C)c3ccc(Cl)cc3)c2cc1OCCCCCCC(=O)NO` [Compound 82, (R)-7-(4-(1-(4-chlorophenyl)ethylamino)-7-methoxyquinazolin-6-yloxy)-N-hydroxyheptanamide], the IC50 (HDAC) is reported as 0.1 to 1 µM.

Work on `COc1ccc([C@@H](C)Nc2ncnc3cc(OC)c(OCCCCCCC(=O)NO)cc23)cc1` [Compound 83, (R)—N-hydroxy-7-(7-methoxy-4-(1-(4-methoxyphenyl)ethylamino)quinazolin-6-yloxy)-heptanamide] yielded an IC50 (HDAC) of under 0.1 µM.

Work on `COc1cc2ncnc(NCCc3ccccc3)c2cc1OCCCCCCC(=O)NO` [Compound 84] yielded an IC50 (HDAC) of under 0.1 µM.

With `COc1cc2ncnc(NCc3ccc(F)cc3)c2cc1OCCCCCCC(=O)NO` [Compound 86, 7-(4-(4-fluorobenzylamino)-7-methoxyquinazolin-6-yloxy)-N-hydroxyheptanamide] the IC50 (HDAC) was under 0.1 µM.

`COc1cc2ncnc(NCc3ccc(F)c(F)c3)c2cc1OCCCCCCC(=O)NO` [Compound 87, 7-(4-(3,4-difluorobenzylamino)-7-methoxyquinazolin-6-yloxy)-N-hydroxyheptanamide] gave an IC50 (HDAC) of under 0.1 µM.

`COc1cc2ncnc(NCc3cccc(Br)c3)c2cc1OCCCCCCC(=O)NO` [Compound 89, 7-(4-(3-bromobenzylamino)-7-methoxyquinazolin-6-yloxy)-N-hydroxyheptanamide] showed an IC50 (HDAC) of under 0.1 µM.

`C#Cc1cccc(CNc2ncnc3cc(OC)c(OCCCCCCC(=O)NO)cc23)c1` [Compound 90, 7-(4-(3-ethynylbenzylamino)-7-methoxyquinazolin-6-yloxy)-N-hydroxyheptanamide] gave an IC50 (HDAC) of under 0.1 µM.

For `COc1cc2ncnc(Nc3ccc(F)c(Cl)c3)c2cc1OCCOc1ccc(CC(=O)NO)cc1` [Compound 91], the IC50 (HDAC) was 1 to 10 µM.

Work on `COc1cc2ncnc(Nc3ccc(F)c(Cl)c3)c2cc1NC(=O)Nc1ccc(C(=O)NO)cc1` [Compound 93] yielded an IC50 (HDAC) of 1 to 10 µM.

In the case of `COc1cc2ncnc(Nc3ccc(F)c(Cl)c3)c2cc1OCCCCCCC(=O)N(C)O` [Compound 94], the IC50 (HDAC) is reported as over 10 µM.

For `COc1cc2ncnc(Nc3ccc(F)c(Cl)c3)c2cc1OCCCCCCN(O)C(C)=O` [Compound 103, N-(6-(4-(3-chloro-4-fluorophenylamino)-7-methoxyquinazolin-6-yloxy)hexyl)-N-hydroxyacetamide], the IC50 (HDAC) was over 10 µM.

Work on `COc1cc2ncnc(Nc3ccc(F)c(Cl)c3)c2cc1OCCNCc1ccc(C(=O)NO)cc1` [Compound 107] yielded an IC50 (HDAC) of 0.1 to 1 µM.

`COc1cc2ncnc(Nc3ccc(F)c(Cl)c3)c2cc1OCCN(CCO)CCCC(=O)NO` [Compound 118] was tested, and the IC50 (HDAC) was 1 to 10 µM.

`COc1cc2ncnc(Nc3ccc(F)c(Cl)c3)c2cc1OCCNCc1ccc(C#CC(=O)NO)cc1` [Compound 121] gave an IC50 (HDAC) of over 10 µM.

`COc1cc2ncnc(Nc3ccc(F)c(Cl)c3)c2cc1-c1ccc(C#CCCC(=O)NO)o1` [Compound 124] showed an IC50 (HDAC) of over 10 µM.

For `COc1cc2ncnc(Nc3ccc(F)c(Cl)c3)c2cc1-c1ccc(C#CCCCC(=O)NO)o1` [Compound 125], the IC50 (HDAC) was 0.1 to 1 µM.

`COc1cc2ncnc(Nc3ccc(F)c(Cl)c3)c2cc1C#CCCC(=O)NO` [Compound 138] gave an IC50 (HDAC) of 1 to 10 µM.

Molecule `COc1cc2ncnc(Nc3ccc(F)c(Cl)c3)c2cc1C#CCCCC(=O)NO` [Compound 139, 6-(4-(3-chloro-4-fluorophenylamino)-7-methoxyquinazolin-6-yl)-N-hydroxyhex-5-ynamide] has an IC50 (HDAC) of 1 to 10 µM.

`COc1cc2ncnc(Nc3ccc(F)c(Cl)c3)c2cc1CCCCC(=O)NO` [Compound 144, 5-(4-(3-chloro-4-fluorophenylamino)-7-methoxyquinazolin-6-yl)-N-hydroxypentanamide] gave an IC50 (HDAC) of 0.1 to 1 µM.

With `COc1cc2ncnc(Nc3ccc(F)c(Cl)c3)c2cc1Oc1ccc(C#CCCCC(=O)NO)cc1` [Compound 205] the IC50 (HDAC) was 1 to 10 µM.
